Measured values from US20100167335A1, “METHODS FOR DIAGNOSING AND TREATING ALLERGIES” (The Research Foundation of State University of New York, priority 2008, published 2010).

Experiments:
Type in all cases: cell-based, human
[1] = system: IFN-γ in PBMC culture from serum IgE+ allergic asthmatics; assay: IFN-γ release by PBMC cultures infected with C. pneumoniae MOI 0.1 (Example 3); conditions: for IFN-γ level, mean % change: p=NS
Procedure: (§1) Peripheral blood (15 mL total) was obtained from patients and controls in ethylenediaminotetraacetic (EDTA) tubes. PBMC were isolated from whole blood on Ficoll-Paque (GE Healthcare, Sweden) and then washed in RPMI 1640 with 10% fetal bovine serum (FBS), and resuspended in complete RPMI 1640 (c-RPMI). C-RPMI contained RPMI-1640 Medium HEPES Modification supplemented by L-glutamine 5 mM and 10% FBS. Cells were counted and cell viability evaluated with trypan blue dye using a hemocytometer. PBMC (1.5×10^6/mL) were cultured in duplicate in 24 flat bottom well plates (1 ml/well) for up to 12 days in absolute humidification and 5% CO2. Cell viability at 0, 48 and 240 hours was >95%. Following a 2 h incubation to allow adherance PBMC cultures were infected or stimulated in the presence or absence of doxycycline. Doxycycline was reconstituted in a 1× sterile Dulbecco's Phosphate Buffered Saline (PBS).
(§2) PBMC were infected by adding purified EB at a multiplicity of infection (MOI) of 0.01-5 for 1 hour, followed by further incubation in the presence or absence of doxycycline, at 0.01, 0.1, 1.0 μg/mL, for 2 and 10 days p.i. at 37.0° C. in complete medium in a humidified 5% CO2 atmosphere. The time points 2 d (for cytokines) and 10 d p.i. […] Adherent cells were stained with monoclonal genus specific antibodies to confirm and quantify infection with C. pneumoniae at 72 h post infection. Identical volumes of inactivated C. pneumoniae were added in some experiments. C. pneumoniae was inactivated by incubation in a 56° C. water bath for 30 minutes. […]
(§3) In order to characterize the contribution of different T lymphocyte subpopulations to in vitro IgE production, cytokine concentration in infected and uninfected PBMC cultures were analyzed and determined. […]
(§4) To determine the effect of doxycycline on cytokine release by PBMC, doxycycline (0.01-1.0 ng/ml) was added to culture following infection with C. pneumoniae (MOI=0.1). […] In FIG. 8, the data is expressed as a percent control (PBMC day 10 p.i.), 100% is the mean highest response to Cpn; *P<0.05 for doxycycline treated cultures versus no doxycycline.

[2] = system: PBMC from allergic asthmatics infected with C. pneumoniae; assay: In vitro IgE release by PBMC cultures infected with C. pneumoniae MOI 0.1, day 10 (Example 3)
Procedure: as §1, §2
Doxycycline at a concentration of 1 μg/ml was added to PBMC cultures after one hour incubation with C. pneumoniae MOI of 0.1. […] In FIG. 5, the data is expressed as percent control (PBMC day 10 p.i.); the mean change was 48% decrease; p=0.043. In FIG. 6, the data is expressed as mean IgE±SD (ng/ml) in cultures with the following conditions: uninfected cells (Naïve); Cpn MOI=0.1; Cpn MOI=0.1 and doxycycline […]; Cpn MOI of 1.0 and heat inactivated Cpn.

[3] = system: IL-4 in PBMC culture from serum IgE+ allergic asthmatics; assay: IL-4 release by PBMC cultures infected with C. pneumoniae MOI 0.1 (Example 3)
Procedure: as §1, §2, §3, §4

`C[C@H]1c2cccc(O)c2C(=O)C2=C(O)[C@]3(O)C(=O)C(C(N)=O)=C(O)[C@@H](N(C)C)[C@@H]3[C@@H](O)[C@@H]21` [doxycycline] was tested, and the “IFN-γ level, mean % decrease” value ([1]; doxycycline 1 ng/ml, day 2 (48 h), p=0.043) was 43±27%, the “IFN-γ level, mean % change” value ([1]; doxycycline 0.01 μg/ml) was 5%±11 and the “IFN-γ level, mean % change” value ([1]; doxycycline 0.1 μg/ml) was −1%±18. The “mean change of IgE response, decrease (FIG. 5, percent control)” value ([2]; FIG. 5, individual subjects n=5, PBMC day 10 p.i., Cpn MOI=0.1, p=0.043) was 48%, the “suppression of IgE responses (average)” value ([2]; doxycycline 1 μg/ml added after 1 h incubation with C. pneumoniae MOI 0.1, day 10, p=0.043) was 42% and the “IgE in PBMC culture” value ([2]; doxycycline 1 μg/ml, C. pneumoniae MOI 0.1, day 10, versus 5.9±6.0 ng/ml without doxycycline) was 3.4 ± 3.9 ng/mL. For the same compound, the “IL-4 level, mean % decrease” value ([3]; doxycycline 1 ng/ml, day 2 (48 h), p=0.018) was 30±14%, the “IL-4 level, mean % change” value ([3]; doxycycline 0.01 μg/ml, p=0.018) was −45±33% and the “IL-4 level, mean % change” value ([3]; doxycycline 0.1 μg/ml, p<0.05) was −60±13%.
